Assay results reported in patent US20150125904A1, “PROBE INCORPORATION MEDIATED BY ENZYMES” (Massachusetts Institute of Technology, priority 2012, published 2015).
Read-outs that look alike come from different tables or passages of the source.

Experiments:
LAP-CFP-TM on HEK cells [1] = experiment: Enzyme-catalyzed azide ligation efficiencies at the cell surface (anti-lipoic acid antibody staining); format: cell-based, human; conditions: for lipoylation of remaining LAP sites after azide labeling, relative to condition 3 (100%): 20 min azide ligation, picolyl azide 8 with W37VLplA, 8-azidooctanoic acid with wild-type LplA; for estimated extent of azide ligation: indirectly estimated from lipoylation extent, 20 min
Experimental: A: Labeling protocol. HEK cells expressing LAP-CFP-TM were labeled with picolyl azide 8 and W37VLplA, or 8-azidooctanoic acid and wild-type LplA, using the same exact conditions as in FIGS. 6 and 9. Thereafter, cells were washed and any remaining unmodified LAP sites were labeled under forcing conditions with lipoic acid (200 μM lipoic acid, 1 mM ATP, and 20 μM wild-type LplA for 20 min). Anti-lipoic acid antibody staining was used to quantify the extent of lipoylation, and CuAAC was performed thereafter with 20 μM Alexa Fluor® 647-alkyne, 100 μM CuSO4, and 500 μM BTTAA ligand for 5 min. Cells were imaged live. B: Representative confocal images. Results obtained using picolyl azide 8 (condition 2) are shown below results with 8-azidooctanoic acid (condition 1). A negative control with neither azide added during the LplA step is shown in the bottom row (condition 3). The Alexa Fluor® 647 channel reflects CuAAC labeling. The Alexa Fluor® 568 channel reflects anti-lipoic acid antibody labeling. The CFP channel showing LAP-CFP-TM expression is overlaid on DIC. Scale bars, 10 μm. C: Quantitation of data in (B). The mean intensities in all three channels were collected for >90 single cells for each condition. To compare the extents of lipoylation, the Alexa Fluor® 568/CFP ratios were calculated (to normalize for variations in LAP expression level), averaged, and plotted on the graph. CuAAC labeling extent was quantified in a similar way. Error bars, ±s.e.m. Due to the forcing conditions of the LplA-catalyzed lipoylation, we set condition 3 to represent 100% lipoylation extent for the cell surface LAP-CFP-TM population. By comparison, lipoylation after picolyl azide 8 labeling proceeds to 19% that of condition. Lipoylation after 8-azidooctanoic acid labeling proceeds to 37% that of condition 3. Based on these, we can indirectly estimate that picolyl azide 8 ligation proceeds to 81%, and 8-azidooctanoic acid ligation proceeds to 63%, under these conditions.
Live HEK cells were incubated with rabbit anti-lipoic acid antibody (Calbiochem) in cell growth medium at 1:300 dilution for 10 min at room temperature, followed by two washes with cell growth medium. Thereafter, cells were incubated with anti-rabbit secondary antibody conjugated to Alexa Fluor® 568 (Life Technologies) in cell growth medium at 1:300 dilution for 10 min at room temperature, followed by two washes with cell growth medium.

LAP-CFP-TM on HEK cells [2] = experiment: Two-step cell surface protein labeling, PRIME followed by CuAAC (Alexa Fluor 647/CFP ratio); format: cell-based, human
Experimental: FIG. 6 is a diagram showing comparison of protein labeling signals on live cells using PRIME and CuAAC, with and without chelating azides. Two-step site-specific protein labeling was performed as in FIG. 3B above and 9 below, on HEK cells expressing LAP-tagged cyan fluorescent protein fused to the transmembrane domain of the PDGF receptor (LAP-CFP-TM). In the first step, either W37VLplA was used to target picolyl azide 8 to LAP, or wild-type LplA was used to ligate non-chelating 8-azidooctanoic acid. The efficiencies of these two ligation reactions are compared in FIG. S5. In the second step, CuAAC was performed for 5 min with Alexa Fluor® 647-alkyne and CuSO4 (10, 40, or 100 μM) in combination with either THPTA or BTTAA ligand (provided in 5-fold excess relative to the CuSO4 concentration). To quantify labeling signals, the mean Alexa Fluor® 647 and mean CFP intensities were calculated for >90 cells for each condition, ratioed to normalize for variations in LAP-CFP-TM expression level, and averaged. Error bars, ±s.e.m.
A: Two-step site-specific cell surface protein labeling protocol. In the first step, HEK cells expressing LAP-CFP-TM (TM is the transmembrane helix of the PDGF receptor) were labeled with picolyl azide 8 using W37VLplA and ATP added to the cell medium for 20 min. Alternatively, LAP-CFP-TM was labeled with non-chelating azide 8-azidooctanoic acid using wild-type LplA. In the second step, CuAAC was performed for 5 min using Alexa Fluor® 647-alkyne, various concentrations of CuSO4 (10, 40, or 100 μM), and either THPTA or BTTAA ligand added in 4-fold excess of the CuSO4. B: Representative confocal cell images for twelve different conditions (three CuSO4 concentrations, either THPTA or BTTAA ligand, and either alkyl azide or picolyl azide). For each condition, the Alexa Fluor® 647 labeling channel and the CFP channel, overlaid on DIC, are shown. Insets show the Alexa Fluor® 647 channel at higher contrast. Scale bars, 10 μm.
LplA labeling was performed with picolyl azide 8,8-azidooctanoic acid, or 10-undecynoic acid. CuAAC was performed with either alkyne, picolyl azide, or alkyl azide conjugates to Alexa Fluor® 647. A: Representative images showing labeling of LAP-CFP-TM on the surface of live HEK cells under four different conditions. CFP channels are shown, along with Alexa Fluor® 647 labeling channels normalized to the same intensity range (bottom) or not normalized (middle). LplA labeling protocol for all four conditions: 200 μM azide or alkyne substrate, 10 μM LplA (wild-type or mutant), 1 mM ATP, and 5 mM Mg(OAc)2 in cell culture medium for 20 min. […] B: Quantitation of data in (A). Average Alexa Fluor® 647/CFP intensity ratios were calculated for ˜50 single cells from each condition. […]

Wild-type LplA = biological target: T1, Wild-type LplA (Escherichia coli, UniProt P32099); conditions: cited from earlier work
T1 construct: His6 (N); made in house; host or cells: E. coli

[3] = Kinetic analysis of the CuAAC reaction (fluorogenic click with 7-ethynyl coumarin); conditions: for improvement in initial CuAAC rate over carbocyclic analog: 10 μM CuSO4, no accelerating ligand, 2 vs 1, 4 vs 3; for effect of ring substituent on CuAAC reaction: 10 μM CuSO4, no ligand
Experimental: FIG. 4 is a graph illustrating in vitro analysis of CuAAC rates with chelating azides. A: A fluorogenic click reaction with 7-ethynyl coumarin was used to quantify CuAAC reaction progress. Zhou et al., JACS, 126:8862-8863 (2004). B: Various chelating azide structures tested and their CuAAC reaction yields after 10 min and 30 min. Reactions were run with 10 μM CuSO4 and no ligand (THPTA or BTTAA). C: Kinetic comparison of chelating azide 4 and its non-chelating benzyl counterpart 3 at different copper concentrations. CuAAC product was quantified using the assay in A), at 100, 40, and 10 μM CuSO4, both in the absence and presence of Cu(I) ligand THPTA. Measurements were performed in triplicate. Error bars, ±s.d.
Fluorescence was converted to coumarin triazole product quantity by comparison to standard curves, individually generated for each azide-coumarin alkyne adduct. Entries with less than 1% reaction yield (azides 1 and 3) are omitted from the plot. Measurements were performed in triplicate. Error bars, ±s.d.
General reaction conditions: 20 μM azide, 40 μM 7-ethynyl coumarin (A), and 4 mM sodium ascorbate in 100 mM sodium phosphate buffer at pH 7.4 at 25±1° C. 100 μM Tempol was added to each reaction to minimize Cu-dependent fluorescence quenching of 7-ethynyl coumarin and coumarin-triazoles. FIG. 4A.
Reactions were initiated by the addition of CuSO4: 10 μM for the azide compounds shown in FIG. 4B, and 10, 40, or 100 μM for the compounds shown in FIG. 4C. In FIG. 4C when THPTA was included, the THPTA:copper ratio was fixed at a 4:1 molar ratio. Coumarin fluorescence was recorded on a Tecan SAFIRE microplate reader at 2-min intervals for 30 min with excitation at 320 nm and emission detection at 430 nm. For each azide, the turn-on fluorescence of coumarin was correlated to % conversion to product using a calibration curve made from a mixture of known concentrations of 7-ethynyl coumarin and coumarin-triazole adduct of each azide, as follows:
Coumarin-triazole standards for azide 1, 2, 5, 6, and 7 (FIG. 4B) were generated from reacting 120 μM of each azide with 100 μM 7-ethynyl coumarin until 7-ethynyl coumarin was fully converted to the triazole adduct, using 100 μM CuSO4, 400 μM THPTA, and 4 mM sodium ascorbate. […] Such reaction mixture, now representing coumarin-triazole of a known concentration (100 μM), was then mixed with 7-ethynyl coumarin in defined ratios in the presence of 20-fold molar excess of EDTA relative to CuSO4, (which was carried over from the triazole generation reaction), to generate the calibration curve above.
Coumarin-triazole standards for azide 3 and 4 were generated from purified coumarin-triazole adducts for each azide (synthetic methods described below). Calibration curves were generated for azide 3 and 4 using coumarin-triazoles from crude reaction mixtures as described above, and found them to perform similarly to calibration curves generated from purified triazoles. FIG. 4C.

[4] = cited from earlier work
[5] = conjugation to LAP, previously reported

T1 sequence (P32099 2-338): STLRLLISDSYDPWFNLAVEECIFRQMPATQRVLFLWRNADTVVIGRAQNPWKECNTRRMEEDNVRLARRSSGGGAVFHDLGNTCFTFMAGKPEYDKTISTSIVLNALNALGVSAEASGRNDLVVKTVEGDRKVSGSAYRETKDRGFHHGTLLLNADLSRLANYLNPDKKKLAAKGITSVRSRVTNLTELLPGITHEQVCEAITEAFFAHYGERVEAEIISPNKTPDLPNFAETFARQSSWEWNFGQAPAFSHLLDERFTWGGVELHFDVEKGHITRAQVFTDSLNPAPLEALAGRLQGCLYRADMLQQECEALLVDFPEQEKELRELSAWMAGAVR

Question: Which “lipoylation of remaining LAP sites after azide labeling, relative to condition 3 (100%)” value (LAP-CFP-TM on HEK cells [1]) does the source give for `[N-]=[N+]=NCc1ccc(C(=O)NCCCCC(=O)O)cn1` [Picolyl azide 8, 5-(6-(Azidomethyl)nicotinamido)pentanoic acid] here?
Answer: The value was 19%.

Question: And the “difference in ligation extent over 8-azidooctanoic acid ligation” value (LAP-CFP-TM on HEK cells [1]; 20 min labeling conditions)?
Answer: The value was “at most 1.5 fold”.

Question: And the “estimated extent of azide ligation” value (LAP-CFP-TM on HEK cells [1])?
Answer: Its value is 81%.

Question: And the “signal of picolyl azide ligation followed by fluorophore-alkyne relative to alkyne ligation followed by fluorophore-picolyl azide” value (LAP-CFP-TM on HEK cells [2]; 100 μM CuSO4, 500 μM THPTA, 5 min (FIG. 13))?
Answer: The value was about 2.4 fold.

Question: What about the “boost of cell signal on replacement of 8-azidooctanoic acid, corrected for enzymatic ligation efficiencies” value (LAP-CFP-TM on HEK cells [2]; 10, 40, 100 μM Cu, THPTA or BTTAA, corrected) of the same compound?
Answer: The value was at most 25 fold.

Question: What about the “signal relative to alkyl azide at 100 μM Cu (+THPTA), corrected value” (LAP-CFP-TM on HEK cells [2]; picolyl azide at 10 μM Cu (+THPTA)) of the same compound?
Answer: Its value is 1.6 fold.

Question: And the “signal relative to alkyl azide at 100 μM Cu, corrected value” (LAP-CFP-TM on HEK cells [2]; picolyl azide at 40 μM Cu, BTTAA)?
Answer: Its value is 3.9 fold.

Question: For `[N-]=[N+]=NCCCCCCCC(=O)O` [8-azidooctanoic acid, reference compound], which “lipoylation of remaining LAP sites after azide labeling, relative to condition 3 (100%)” value (LAP-CFP-TM on HEK cells [1]) is on record?
Answer: The value was 37%.

Question: And the “estimated extent of azide ligation” value (LAP-CFP-TM on HEK cells [1])?
Answer: Its value is 63%.

Question: What about the Km (Wild-type LplA; [5]) of the same compound?
Answer: Its Km is 127 µM.

Question: What about the kcat (Wild-type LplA; [5]) of the same compound?
Answer: The kcat was 0.111 s⁻¹.

Question: Which results are given for `[N-]=[N+]=NCc1ccc(C(=O)O)cn1` [Azide 4, 6-Azidomethylnicotinic acid]?
Answer: improvement in initial CuAAC rate over carbocyclic analog [3]: 14 fold; time for CuAAC reaction to completion ([3]; THPTA absent, 100 and 40 uM Cu): ≤ 30 min; time for CuAAC reaction to completion ([3]; THPTA added, all three copper concentrations (10, 40, 100 μM)): ≤ 5 min

Question: With `O=C(O)CCCC[C@@H]1CCSS1` (racemic) [lipoic acid] as the compound, how does the kcat (Wild-type LplA; lipoic acid ligation by wild-type LplA) read?
Answer: The kcat was 0.22 s⁻¹.

Question: For “6,8-difluoro-7-hydroxycoumarin [Pacific Blue]”, which “pKa of 7-OH substituent” value [4] is on record?
Answer: The value was 3.7.

Question: With `[N-]=[N+]=NCc1ccccn1` [Azide 2, 2-azidomethylpyridine] as the compound, how does the “improvement in initial CuAAC rate over carbocyclic analog” value [3] read?
Answer: The value was 43 fold.

Question: Which “effect of ring substituent on CuAAC reaction” value [3] does the source give for `[N-]=[N+]=NCc1cc(Cl)ccn1` [Azide 7, 2-Azidomethyl-4-chloropyridine] here?
Answer: Its value is “dampened the accelerating effect”.

Question: For `COc1ccnc(CN=[N+]=[N-])c1` [Azide 6, 2-Azidomethyl-4-methoxypyridine], which “effect of ring substituent on CuAAC reaction” value [3] is on record?
Answer: The value was “further accelerated the CuAAC reaction”.

Question: With `[N-]=[N+]=NCc1ccc(C(=O)O)cc1` [Azide 3, 4-azidomethylbenzoic acid, reference compound] as the compound, how does the “time for CuAAC reaction to completion” value ([3]; THPTA added, 100 and 40 uM Cu) read?
Answer: Its value is at most 30 min.
